In ChEMBL document CHEMBL2029231, “A novel series of pyrazolylpiperidine N-type calcium channel blockers” (Bioorg Med Chem Lett, 2012):

Tests used:
[1] = Inhibition of N-type calcium channel alpha1B/alpha2delta-1/beta1b assessed as inhibition of KCl-induced calcium mobilization by FDSS
[2] = (§1) Metabolic stability in human liver microsomes assessed as compound remaining after 10 mins; type: ADME, Microsome; details: liver microsomes, read-out: Stability
[3] = (§2) Metabolic stability in rat liver microsomes assessed as compound remaining after 10 mins; type: ADME, Microsome; details: liver microsomes, read-out: Stability
[4] = test system: Liver microsomes; test: as §1; type: ADME, Microsome; details: microsomes, 10 min
[5] = test system: Liver microsomes; test: as §2; type: ADME, Microsome; details: microsomes, 10 min
[6] = Inhibition of N-type calcium channel alpha1B/alpha2delta-1/beta1b by patch clamp analysis
[7] = test system: Rattus norvegicus; test: Antiinflammatory activity in Sprague-Dawley rat assessed as reversal of carrageenan-induced thermal hypersensitivity at 30 mg/kg, ip administered 1 hr before carrageenan challenge relative to control; type: functional; details: route intraperitoneal
[8] = Oral bioavailability in Sprague-Dawley rat at 10 mg/kg; type: ADME, organism-based; details: in vivo
[9] = Inhibition of L-type calcium channel at 5 uM
[10] = test system: Rattus norvegicus; test: Antiinflammatory activity in ip dosed Sprague-Dawley rat assessed as reversal of carrageenan-induced thermal hypersensitivity administered 1 hr before carrageenan challenge; type: functional, organism-based
[11] = species: Rattus norvegicus; test: Ex vivo inhibition of rat N-type calcium channel assessed as inhibition of KCl-stimulated CGRP release at 1 uM by ELISA in presence of conotoxin GVIA; type: functional
[12] = Clearance in Sprague-Dawley rat at 2 mg/kg, iv; type: ADME, organism-based; parameters: dose 2 mg/kg, route intravenous; details: in vivo
[13] = Tmax in Sprague-Dawley rat at 10 mg/kg, po; type: ADME, organism-based; parameters: dose 10 mg/kg, route oral; details: in vivo
[14] = test system: Rattus norvegicus; test: Antiallodynic activity in Sprague-Dawley rat chronic constriction injury-induced neuropathic pain model assessed as attenuation of CCl-induced cold allodynia at 30 mg/kg, ip measured at 1 to 4 hrs; type: functional; details: route intraperitoneal
[15] = Half life in Sprague-Dawley rat at 2 mg/kg, iv; type: ADME, organism-based; parameters: dose 2 mg/kg, route intravenous; details: in vivo
[16] = Cmax in Sprague-Dawley rat at 10 mg/kg, po; type: ADME, organism-based; parameters: dose 10 mg/kg, route oral; details: in vivo
[17] = test system: Plasma; test: Plasma concentration in Sprague-Dawley rat at 30 mg/kg, ip; type: ADME, organism-based; parameters: dose 30 mg/kg, route intraperitoneal; details: in vivo

COc1ccccc1-n1nc(C2CCN(S(C)(=O)=O)CC2)cc1-c1ccc2c(ccn2C)c1
IC50 [1]: 68 nM

COc1ccccc1-n1nc(C2CCN(S(C)(=O)=O)CC2)cc1-c1ccc(Cl)c(C(F)(F)F)c1
IC50 [1]: 100 nM

COc1ccccc1-n1nc(C2CCN(C(C)=O)CC2)cc1-c1ccc(Cl)cc1
IC50 [1]: 17 nM | remaining at 10 min [2]: 59% | remaining at 10 min [3]: 7%

COc1ccccc1-n1nc(C2CCN(S(=O)(=O)CC(F)(F)F)CC2)cc1-c1ccc(Cl)cc1
IC50 [1]: 26 nM | remaining at 10 min [2]: 100% | remaining at 10 min [3]: 33%

COc1ccccc1-n1nc(C2CCN(S(C)(=O)=O)CC2)cc1-c1ccc(F)cc1
IC50 [1]: 98 nM

COc1ccccc1-n1nc(C2CCN(S(=O)(=O)N(C)C)CC2)cc1-c1ccc(Cl)cc1
IC50 [1]: 11 nM | Stability [4]: Unstable | Stability [5]: Unstable

COc1ccccc1-n1nc(C2CCN(S(C)(=O)=O)CC2)cc1-c1ccc(OC(C)C)cc1
IC50 [1]: 250 nM

CN(C)c1ccccc1-n1nc(C2CCN(S(C)(=O)=O)CC2)cc1-c1ccc(Cl)cc1
IC50 [1]: 13 nM

COc1ccccc1-n1nc(C2CCN(S(C)(=O)=O)CC2)cc1C1CCC(C)(C)CC1
IC50 [1]: 140 nM

OCCCc1cc(-c2ccc(Cl)cc2)n(-c2ccccc2)n1
IC50 [1]: 1200 nM

COc1ccccc1-n1nc(C2CCN(S(C)(=O)=O)CC2)cc1-c1ccc(Cl)s1
IC50 [1]: 93 nM

COc1ccccc1-n1nc(C2CCN(S(=O)(=O)C(C)C)CC2)cc1-c1ccc(Cl)cc1
IC50 [1]: 18 nM | remaining at 10 min [2]: 100% | remaining at 10 min [3]: 19% | IC50 [6]: 80 nM

CNc1ccc(-c2cc(C3CCN(S(C)(=O)=O)CC3)nn2-c2ccccc2OC)cc1
IC50 [1]: 200 nM

COc1ccccc1-n1nc(C2CCN(S(C)(=O)=O)CC2)cc1-c1ccc(Cl)cc1Cl
IC50 [1]: 15 nM

COc1ccccc1-n1nc(C2CCN(S(C)(=O)=O)CC2)cc1-c1cc2ccccc2o1
IC50 [1]: 400 nM

COc1ccccc1-n1nc(C2CCN(S(C)(=O)=O)CC2)cc1-c1ccc(Cl)cc1
Activity [7]: 82% | bioavailability [8]: 42.5% | inhibition [9]: 52% | Activity [10]: Dose-dependent effect | inhibition (INH) [11]: 91% | IC50 [1]: 27 nM | clearance [12]: 26 mL/min/kg | remaining at 10 min [2]: 86% | Tmax [13]: 0.9 h | inhibition in vivo at 30 mg/kg [14]: 41% | half-life [15]: 1.5 h | remaining at 10 min [3]: 45% | Cmax [16]: 1.5 µM | IC50 [6]: 200 nM | concentration [17]: 8.32 µM

COc1ccccc1-n1nc(C2CCN(S(C)(=O)=O)CC2)cc1-c1ccc(N(C)C)cc1
IC50 [1]: 61 nM

COc1ccccc1-n1nc(C2CCN(S(C)(=O)=O)CC2)cc1-c1ccc(Cl)c(C#N)c1
IC50 [1]: 95 nM

CC(C)Oc1ccccc1-n1nc(C2CCN(S(C)(=O)=O)CC2)cc1-c1ccc(Cl)cc1
IC50 [1]: 5 nM | remaining at 10 min [2]: 18% | remaining at 10 min [3]: 5%

COc1ccccc1-n1nc(C2CCN(S(C)(=O)=O)CC2)cc1-c1ccc(C#N)cc1
IC50 [1]: 170 nM

COc1ccccc1-n1nc(C2CCN(S(C)(=O)=O)CC2)cc1-c1ccc(C(C)(C)C)cc1
IC50 [1]: 29 nM

CCS(=O)(=O)N1CCC(c2cc(-c3ccc(Cl)cc3)n(-c3ccccc3OC)n2)CC1
IC50 [1]: 35 nM | Stability [4]: Unstable | remaining at 10 min [3]: 22%

CS(=O)(=O)N1CCC(c2cc(-c3ccc(Cl)cc3)n(-c3ccccc3N)n2)CC1
IC50 [1]: > 300 nM

COc1c(Cl)cccc1-n1nc(C2CCN(S(C)(=O)=O)CC2)cc1-c1ccc(Cl)cc1
IC50 [1]: 170 nM

COc1ccccc1-n1nc(C2CCN(S(=O)(=O)C(F)(F)F)CC2)cc1-c1ccc(Cl)cc1
IC50 [1]: 16 nM | remaining at 10 min [2]: 98% | remaining at 10 min [3]: 100%

COc1ccccc1-n1nc(C2CCN(S(C)(=O)=O)CC2)cc1C1=CCC(C)(C)CC1
IC50 [1]: 49 nM

COc1ccccc1-n1nc(CCCO)cc1-c1ccc(Cl)cc1
IC50 [1]: 97 nM | remaining at 10 min [3]: 14%
